The source of these data is ChEMBL document CHEMBL5543130, “Design, Synthesis, and In Vivo Evaluation of Isosteviol Derivatives as New SIRT3 Activators with Highly Potent Cardioprotective Effects” (J Med Chem, 2024).

The species entered for data set [1] is Danio rerio. Kind of data set: Cardioprotective activity against doxorubicin-induced Tg(cmlc2: GFP) Zebrafish assessed as reduction in cTnT mRNA level measured at 72 hrs post fertilization by qPCR analysis. The format is functional, organism-based. The note with it: dose <= 5.0 µM. A general note: Quantitative PCR measures a nucleic acid by following its amplification.

Data set [2] relates to Danio rerio. Kind of data set: Cardioprotective activity against doxorubicin-induced Tg(cmlc2: GFP) Zebrafish assessed as […] at 5 uM measured at 72 hrs post fertilization. The data set is classed as functional, organism-based.
For data set [3], the species on record is Danio rerio. Briefly: Cardioprotective activity against doxorubicin-induced Tg(cmlc2: GFP) Zebrafish assessed as reduction in Bnp mRNA level measured at 72 hrs post fertilization by qPCR analysis. The format is functional, organism-based.
The species entered for data set [4] is Danio rerio. Kind of data set: Cardioprotective activity against doxorubicin-induced Tg(cmlc2: GFP) Zebrafish assessed as restoration of normal heart structure at 5 uM measured at 72 hrs post fertilization. The format is functional, organism-based.
Data set [5] can be described thus: Toxicity in zebrafish embryos assessed as survival at upto 40 uM fertilized for 24 hrs followed by compound administration for 72 hrs and measured at 96 hrs post fertilization. Further details: species or system Danio rerio. The note with it: in vivo.
For data set [6], the system named is Danio rerio. Kind of data set: Cardioprotective activity against doxorubicin-induced Zebrafish cardiomyopathy model assessed as survival rate at 5 uM fertilized for 24 hrs followed by compound administration for 72 hrs and measured at 96 hrs post fertilization by inverted fluorescence microscopic analysis. The format is functional.
The species entered for data set [7] is Danio rerio. Kind of data set: Cardioprotective activity against doxorubicin-induced Tg(cmlc2: GFP) Zebrafish assessed as reduction in Anp mRNA level measured at 72 hrs post fertilization by qPCR analysis. Particulars: dose <= 5.0 µM. The data set is classed as functional, organism-based.
For data set [8], the system named is Danio rerio. Kind of data set: Cardioprotective activity against doxorubicin-induced Zebrafish cardiomyopathy model at 5 to 15 uM fertilized for 24 hrs followed by compound administration for 72 hrs and measured at 96 hrs post fertilization by inverted fluorescence microscopic analysis. The data set is classed as functional, organism-based. The note with it: dose 5-15 µM.

Data set [9] has as its system Danio rerio. Briefly: Cardioprotective activity against doxorubicin-induced Zebrafish cardiomyopathy model assessed as survival rate at 5 to 15 uM fertilized for 24 hrs followed by compound administration for 72 hrs and measured at 96 hrs post fertilization by inverted fluorescence microscopic analysis. The data set is classed as functional. The note with it: dose 5-15 µM.

The nature of data set [10]: Water solubility of the compound measured for 24 hrs by HPLC analysis. The format is physicochemical.

≈ marks a conversion by molar mass, not a printed value. Calls of active or inactive are those of the source. No cut-off for these calls is given here.

Turning to `C[C@@]12CC[C@@H]3[C@@](CC[C@H]4[C@@]3(C)CCC[C@@]4(C)C(=O)N3CCN(C(=O)C4=C(C(=O)O)CCCC4)CC3)(CC1=O)C2`, the Activity entry in the data set filed under Danio rerio [1] was “Dose-Dependent Effect”; in the data set listed under Danio rerio [3], “Dose-Dependent Effect”; in [5], “Non-Toxic”; in the data set on Danio rerio [6] it was 85%; in the data set listed under Danio rerio [7], “Dose-Dependent Effect”. Also, the result with Danio rerio [2] and in the data set filed under Danio rerio [4] was Active.

As to `CC(C)(C)OC(=O)N1CCN(C(=O)[C@]2(C)CCC[C@@]3(C)[C@@H]4CC[C@@]5(C)C[C@]4(CC[C@@H]32)CC5=O)CC1`, in the data set with Danio rerio [8], the outcome was Active.

Regarding `COc1cccc(C(=O)N2CCN(C(=O)[C@]3(C)CCC[C@@]4(C)[C@@H]5CC[C@@]6(C)C[C@]5(CC[C@@H]43)CC6=O)CC2)c1OC`, the Survival in the data set on Danio rerio [9] is 86%.

Broadly, the solubility is the dissolved amount per volume that the medium holds. Low values mean little dissolved substance, high ones much dissolved substance. For the compound `C[C@@]12CC[C@@H]3[C@@](CC[C@H]4[C@@]3(C)CCC[C@@]4(C)C(=O)N3CCN(C(=O)c4ccccc4C(=O)O)CC3)(CC1=O)C2`, the Survival in the data set on Danio rerio [9] was determined as 50%. Moreover, in data set [10], the solubility at 24 h amounted to 940 µg/mL (≈ 1760 µM). For the same compound, the Activity result in data set [5] is “Non-Toxic”. The survival at 5 µM with Danio rerio [6] (Danio rerio) worked out at 50%.

Take `CC1CCCC(C(=O)O)C1C(=O)N1CCN(C(=O)[C@]2(C)CCC[C@@]3(C)[C@@H]4CC[C@@]5(C)C[C@]4(CC[C@@H]32)CC5=O)CC1` (stereo not given in full): the outcome with Danio rerio [8] was Active.

As for `C[C@@]12CC[C@@H]3[C@@](CC[C@H]4[C@@]3(C)CCC[C@@]4(C)C(=O)N3CCN(C(=O)COCC(=O)O)CC3)(CC1=O)C2`, the result with Danio rerio [8] was Active.
